Patent publication US9775353B2, “Pesticidally active heterocyclic derivatives with sulphur containing substituents” (Syngenta Participations AG, priority 2014, dated 2017)

Experiments:
[1] = tested on: Spodoptera littoralis (Egyptian cotton leaf worm); assay: Example B1: Activity against Spodoptera littoralis (larvicide, feeding/residual contact, preventive); format: in vivo; details: foliar, 72 h, cotton leaf discs sprayed, L1 larvae, mortality, repellent effect, feeding behaviour, growth regulation 3 days after treatment
Source text: Example B1: Activity Against Spodoptera littoralis (Egyptian Cotton Leaf Worm) (Larvicide, Feeding/Residual Contact Activity, Preventive) Cotton leaf discs were placed on agar in a 24-well microtiter plate and sprayed with test solutions. After drying, the leaf discs were infested with 5 L1 larvae. The samples were checked for mortality, repellent effect, feeding behaviour, and growth regulation 3 days after treatment (DAT).

[2] = tested on: Diabrotica balteata (corn root worm); assay: Example B3: Activity against Diabrotica balteata (larvae L2 on maize sprouts, feeding/contact, preventative); format: in vivo; details: 120 h, maize sprouts sprayed, larval mortality and growth regulation after 5 days
Description: Example B3: Activity Against Diabrotica balteata (Corn Root Worm) (Larvae L2 on Maize Sprouts, Feeding/Contact, Preventative) Maize sprouts, placed on an agar layer in 24 well micro titer plates were treated with test solutions by spraying. After drying, the MTPs were infested with L2 larvae (6-10 per well). After an incubation period of 5 days, samples were checked for larval mortality and growth regulation.

[3] = tested on: Tetranychus urticae (two-spotted spider mite); assay: Example B12: Activity against Tetranychus urticae; format: in vivo; details: foliar, 192 h, application rate 400 ppm, bean leaf discs sprayed, mixed population (mobile stages), 8 days after infestation
Description: Example B12: Activity Against Tetranychus urticae (Two-Spotted Spider Mite)
Bean leaf discs on agar in 24-well microtiter plates were sprayed with aqueous test solutions prepared from 10,000 ppm DMSO stock solutions. After drying the leaf discs were infested with a mite population of mixed ages. The samples were assessed for mortality on mixed population (mobile stages) 8 days after infestation.

[4] = tested on: Plutella xylostella (diamond back moth); assay: Example B2: Activity against Plutella xylostella (larvicide, feeding/residual contact, preventive); format: in vivo; details: 120 h, artificial diet, L2 larvae, larval mortality, antifeedant, growth regulation after 5 days
Description: Example B2: Activity Against Plutella xylostella (Diamond Back Moth) (Larvicide, Feeding/Residual Contact Activity, Preventive) 24-well microtiter plate (MTP) with artificial diet was treated with test solutions by pipetting. After drying, the MTPs were infested with L2 larvae (10-15 per well). After an incubation period of 5 days, samples were checked for larval mortality, antifeedant and growth regulation.

[5] = tested on: Bemisia tabaci (cotton white fly); assay: Example B5: Activity against Bemisia tabaci (adulticide contact activity, preventative); format: in vivo; details: foliar, 168 h, cotton leaf discs sprayed, adult white flies, mortality 7 DAT
Description: Example B5: Activity Against Bemisia tabaci (Cotton White Fly) (Adulticide Contact Activity, Preventative), Adult Cotton leaf discs were placed on agar in a 24-well microtiter plate and sprayed with test solutions. After drying, the leaf discs were infested with adult white flies. After an incubation period of 7 DAT, samples were checked for mortality and special effects (e.g. phytotoxicity).

[6] = tested on: Spodoptera littoralis (Egyptian cotton leaf worm); assay: Example B7: Activity against Spodoptera littoralis (systemic activity); format: in vivo; details: 120 h, systemic via lettuce roots in agar, mortality, repellent effect, feeding behavior, growth regulation 5 days after infestation
Source text: Example B7: Activity Against Spodoptera littoralis (Egyptian Cotton Leaf Worm) (Systemic Activity) Test compounds were applied by pipette into 24 well plates and mixed with agar. Lettuce seeds were placed on the agar and the multi well plate is closed by another plate which contains also agar. After 7 days the roots have absorbed the compound and the lettuce has grown into the lid plate. The lettuce leaves were now cut off into the lid plate. Spodoptera eggs were pipetted through a plastic stencil on a humid gel blotting paper and the plate closed with it. The samples are checked for mortality, repellent effect, feeding behavior, and growth regulation 5 days after infestation.

[7] = tested on: Myzus persicae (green peach aphid); assay: Example B8: Activity against Myzus persicae (feeding/residual contact, preventive, mixed population); format: in vivo; details: foliar, 144 h, sunflower leaf discs sprayed, mixed ages, mortality 6 DAT
Description: Example B8: Activity Against Myzus persicae (Green Peach Aphid) (Feeding/Residual Contact Activity, Preventive), Mixed Population Sunflower leaf discs were placed on agar in a 24-well microtiter plate and sprayed with test solutions. After drying, the leaf discs were infested with an aphid population of mixed ages. After an incubation period of 6 DAT, samples were checked for mortality and special effects (e.g. phytotoxicity).

[8] = tested on: Euschistus heros (neotropical brown stink bug); assay: Example B10: Activity against Euschistus heros; format: in vivo; details: 120 h, soybean leaf sprayed, N-2 nymphs, mortality 5 days after infestation
Description: Example B10: Activity Against Euschistus heros (Neotropical Brown Stink Bug) Soybean leaf on agar in 24-well microtiter plates were sprayed with aqueous test solutions prepared from 10,000 ppm DMSO stock solutions. After drying the leaf were infested with N-2 nymphs. The samples were assessed for mortality 5 days after infestation.

[9] = tested on: Thrips tabaci (onion thrips); assay: Example B11: Activity against Thrips tabaci; format: in vivo; details: foliar, 144 h, application rate 400 ppm, sunflower leaf discs sprayed, mixed ages, 6 days after infestation
Description: Example B11: Activity Against Thrips tabaci (Onion Thrips)
Sunflower leaf discs were placed on agar in 24-well microtiter plates and sprayed with aqueous test solutions prepared from 10,000 ppm DMSO stock solutions. After drying the leaf discs were infested with a thrips population of mixed ages. The samples were assessed for mortality 6 days after infestation.

Row | melting point | Structure (SMILES) | pest or weed control at 400 ppm [1] | pest or weed control at 400 ppm [2] | mortality at 400 ppm [3] | pest or weed control at 400 ppm [4] | pest or weed control at 400 ppm [5] | pest or weed control at 12.5 ppm [6] | pest or weed control at 400 ppm [7] | pest or weed control at 400 ppm [8] | mortality at 400 ppm [9]
1 | 170 to 172 °C | CCS(=O)(=O)c1cc(-c2ccccc2)cnc1-c1nc2cc(C(F)(F)F)ncc2n1C [Compound P39] | – | – | – | – | – | – | – | – | –
2 | 223 to 225 °C | CCS(=O)(=O)c1cc(-c2ccc(F)cc2F)cnc1-c1nc2cc(C(F)(F)F)ncc2n1C [Compound P41] | – | – | – | – | – | – | – | – | –
3 | 270 to 272 °C | CCS(=O)(=O)c1cc(-c2cc(Cl)cc(Cl)c2)cnc1-c1nc2cc(C(F)(F)F)ncc2n1C [Compound P42] | – | – | – | – | – | – | – | – | –
4 | 235 to 237 °C | CCS(=O)(=O)c1cc(-c2cc(Cl)c(F)c(Cl)c2)cnc1-c1nc2cc(C(F)(F)F)ncc2n1C [Compound P43] | – | – | – | – | – | – | – | – | –
5 | 257 to 259 °C | CCS(=O)(=O)c1cc(-c2cccc(C#N)c2)cnc1-c1nc2cc(C(F)(F)F)ncc2n1C [Compound P44] | – | – | – | – | – | – | – | – | –
6 | 181 to 183 °C | CCS(=O)(=O)c1cc(-c2ccc(OC(F)(F)F)cc2)cnc1-c1nc2cc(C(F)(F)F)ncc2n1C [Compound P45] | – | – | – | – | – | – | – | – | –

The remaining lines, values behind:

Row | Structure (SMILES) | melting point | pest or weed control at 400 ppm [1] | pest or weed control at 400 ppm [2] | mortality at 400 ppm [3] | pest or weed control at 400 ppm [4] | pest or weed control at 400 ppm [5] | pest or weed control at 12.5 ppm [6] | pest or weed control at 400 ppm [7] | pest or weed control at 400 ppm [8] | mortality at 400 ppm [9]
7 | CCS(=O)(=O)c1cc(-c2ccccc2C(F)(F)F)cnc1-c1nc2cc(C(F)(F)F)ncc2n1C [Compound P4] | – | > 80% | > 80% | ≥ 80% | – | – | – | – | – | –
8 | CCS(=O)(=O)c1cc(-c2cccc(Cl)c2)cnc1-c1nc2cc(C(F)(F)F)ncc2n1C [Compound P5] | – | > 80% | > 80% | – | > 80% | > 80% | ≥ 80% | > 80% | > 80% | –
9 | CCS(=O)(=O)c1cc(-c2cc(F)cc(F)c2)cnc1-c1nc2cc(C(F)(F)F)ncc2n1C [Compound P7] | – | > 80% | > 80% | – | > 80% | > 80% | ≥ 80% | > 80% | > 80% | ≥ 80%
10 | CCS(=O)(=O)c1cc(-c2ccc(F)cc2)cnc1-c1nc2cc(C(F)(F)F)ncc2n1C [Compound P13] | – | > 80% | > 80% | – | > 80% | > 80% | ≥ 80% | > 80% | > 80% | ≥ 80%
11 | CCS(=O)(=O)c1cc(-c2cccc(OC(F)(F)F)c2)cnc1-c1nc2cc(C(F)(F)F)ncc2n1C [Compound P25] | – | > 80% | > 80% | – | > 80% | > 80% | ≥ 80% | > 80% | > 80% | –
12 | CCS(=O)(=O)c1cc(-c2ccc(C#N)cc2)cnc1-c1nc2cc(C(F)(F)F)ncc2n1C [Compound P36] | – | > 80% | > 80% | ≥ 80% | > 80% | > 80% | ≥ 80% | > 80% | > 80% | ≥ 80%
